Article PMC5601625, “Defining a therapeutic window for kinase inhibitors in leukemia to avoid neutropenia” (Oncotarget, 2017)
“Also recorded” adds a separate entry of the source. Read-outs that look alike come from different tables or passages of the source.

Columns and labels:
Experiment in all cases: Cell Titer Glo cell viability assay, 48 h
Type in all cases: cell-based, human
HL-60 = conditions: for anti-proliferative activity in HL-60 cells: dose-response, Cell Titer Glo; for IC50: read-out: IC50 of inhibitors on cell lines, m (mean)
Method: (§1) The activity of the kinase inhibitor collection against a panel of human leukemia cell lines was determined in cell viability assays run over 48 h using the Cell Titer Glo reagent.
(§2) Figure 1 Effects of kinase inhibition on the proliferation of leukemia cells A. Human leukemia cell lines were treated with duplicate serial dilutions of kinase inhibitors and the effect on cell viability was determined by Cell Titer Glo assay after 48 hours. […] HL-60 cells were treated with serial dilutions of mTor/PI3K B. and MEK C. inhibitors and the effect on cell viability was determined after 48 hours. Data shown is the mean ± SEM of 3 independent experiments.
(§3) Leukemia and lymphoma cell lines were grown in RPMI containing 10% FCS. […] Cell lines are routinely tested for mycoplasma and genotyped by short tandem repeating (STR) profiling to confirm identity.
(§4) Compounds were obtained from SynMedChem and dissolved at […] in DMSO. Serial 2-fold dilutions of each compound were prepared in DMSO using a liquid handling robot (Janus, Perkin Elmer). Each dilution (100nL) was transferred to duplicate tissue culture plates containing 50 μL of media containing 5 × 10^3 cells using a 384 well pin tool. Cells were incubated for 48 h and cell viability was determined using Cell Titer Glow reagents as described by the manufacturer (Promega). Data was acquired using a luminescent plate reader (Envision, Perkin Elmer) and analysed using Activity Base (IDBS, Guilford, UK) and visualised using Spotfire (TIBCO, Palo Alto, CA) as described previously. Each cell line was assayed in independent experiments on at least two occasions. […] Serial 2-fold dilutions of each compound were prepared in media containing 0.2% DMSO and 50 μl of each dilution was added to 10^4 cells in 50 μl of media. Cells were incubated for 48 h and cell viability was determined using Cell Titer Glow assay as described above.

EOL-1 = conditions: read-out: IC50 of inhibitors on cell lines, m (mean)
Method: as §1, §2, §3, §4

HEL.92.1.7 = conditions: read-out: IC50 of inhibitors on cell lines, m (mean)
Method: as §1, §2, §3, §4

OCI-AML3 = conditions: read-out: IC50 of inhibitors on cell lines, m (mean)
Method: as §1, §2, §3, §4

MEG-01 = conditions: read-out: IC50 of inhibitors on cell lines, m (mean)
Method: as §1, §2, §3, §4

KU-812 = conditions: read-out: IC50 of inhibitors on cell lines, m (mean)
Method: as §1, §2, §3, §4

JURKAT = conditions: read-out: IC50 of inhibitors on cell lines, m (mean)
Method: as §1, §2, §3, §4

U937 = conditions: read-out: IC50 of inhibitors on cell lines, m (mean)
Method: as §1, §2, §3, §4

MOLT4 = conditions: read-out: IC50 of inhibitors on cell lines, m (mean)
Method: as §1, §2, §3, §4

THP-1 = conditions: read-out: IC50 of inhibitors on cell lines, m (mean)
Method: as §1, §2, §3, §4

K562 = conditions: read-out: IC50 of inhibitors on cell lines, m (mean)
Method: as §1, §2, §3, §4

MV4;11 = conditions: read-out: IC50 of inhibitors on cell lines, m (mean)
Method: as §1, §2, §3, §4

[1] = 48 h, mean of 2 independent experiments, 0 = less than 10 nM, cell line not given
[2] = Homo sapiens, EOL1, 48 h, mean of 2 independent experiments, 0 = less than 10 nM, cell line not given
[3] = Homo sapiens, 48 h, mean of 2 independent experiments, 0 = less than 10 nM, cell line not given
[4] = Homo sapiens, OCI-AML-3, 48 h, mean of 2 independent experiments, 0 = less than 10 nM, cell line not given
[5] = Homo sapiens, KU812, 48 h, mean of 2 independent experiments, 0 = less than 10 nM, cell line not given
[6] = Homo sapiens, U-937, 48 h, mean of 2 independent experiments, 0 = less than 10 nM, cell line not given
[7] = Homo sapiens, MOLT-4, 48 h, mean of 2 independent experiments, 0 = less than 10 nM, cell line not given

SMILES	IC50 (EOL-1; [1]) [µM]	IC50 (HEL.92.1.7; [1]) [µM]	IC50 (OCI-AML3; [1]) [µM]	IC50 (MEG-01; [1]) [µM]	IC50 (KU-812; [1]) [µM]	IC50 (JURKAT; [1]) [µM]	IC50 (U937; [1]) [µM]	IC50 (MOLT4; [1]) [µM]	IC50 (THP-1; [1]) [µM]	IC50 (HEL.92.1.7; [3]) [µM]	IC50 (OCI-AML3; [4]) [µM]	IC50 (MEG-01; [3]) [µM]	IC50 (KU-812; [5]) [µM]	IC50 (JURKAT; [3]) [µM]	IC50 (U937; [6]) [µM]	IC50 (MOLT4; [7]) [µM]	IC50 (THP-1; [3]) [µM]	IC50 (K562; [3]) [µM]	IC50 (MV4;11; [3]) [µM]	IC50 (HL-60; [3]) [µM]	other results
O=C(NOCC1CC1)c1ccc(F)c(F)c1Nc1ccc(I)cc1Cl [CI-1040]																					anti-proliferative activity in HL-60 cells (HL-60; 48 h): potent activity selectively against the HL-60 cell line; also recorded: selective activity
CS(=O)(=O)N1CCN(Cc2cc3nc(-c4cccc5[nH]ncc45)nc(N4CCOCC4)c3s2)CC1 [GDC-0941]																					anti-proliferative activity in HL-60 cells (HL-60; 48 h): significant anti-proliferative activity
CC(=O)Nc1cccc(-n2c(=O)n(C3CC3)c(=O)c3c(Nc4ccc(I)cc4F)n(C)c(=O)c(C)c32)c1 [GSK-1120212]																					anti-proliferative activity in HL-60 cells (HL-60; 48 h): selective activity
O=C(NOC[C@H](O)CO)c1ccc(F)c(F)c1Nc1ccc(I)cc1F [PD0325901]																					anti-proliferative activity in HL-60 cells (HL-60; 48 h): potent activity selectively against the HL-60 cell line; also recorded: selective activity
CN(c1ccccc1CNc1nc(Nc2ccc3c(c2)CC(=O)N3)ncc1C(F)(F)F)S(C)(=O)=O [PF431396]	1.52	4.07	2.96	6.32	5.24	3.61	1.23	6.42	3.66												IC50 (K562; [1]): 7.1 µM; IC50 (MV4;11; [1]): 0.16 µM; IC50 (HL-60; [1]): 1.64 µM
COc1ccc(-c2cc3c(C)nc(N)nc3n([C@H]3CC[C@H](OCCO)CC3)c2=O)cn1 [PF-04691502]																					anti-proliferative activity in HL-60 cells (HL-60; 48 h): significant anti-proliferative activity
CC(=O)Nc1ccc([C@H](C)C(=O)Nc2ncc(C(C)C)s2)cc1 [PHA690509]	5.31	2.88	6.23	5.39	3.93	3.21	1.05	4.68	5.98												IC50 (K562; [1]): 5.98 µM; IC50 (MV4;11; [1]): 5.89 µM; IC50 (HL-60; [1]): 2.35 µM
COc1ccc2c(c1OC)N=C(NC(=O)c1cccnc1)N1CCN=C21 [PIK-90]	5.09	> 10	0.82	> 10	> 10	9.47	2.32	3.92	5.41												IC50 (K562; [1]): > 10 µM; IC50 (MV4;11; [1]): 6.41 µM; IC50 (HL-60; [1]): 2.24 µM
CC(=O)Nc1nc(C)c(-c2ccc(Cl)c(S(=O)(=O)NCCO)c2)s1 [PIK-93]																					IC50 (EOL-1): 0.39 µM; IC50 (HEL.92.1.7): 8.14 µM; IC50 (OCI-AML3): 1.8 µM; IC50 (MEG-01): > 10 µM; IC50 (KU-812): > 10 µM; IC50 (JURKAT): 3.4 µM; IC50 (U937): 1.29 µM; IC50 (MOLT4): 2.95 µM; IC50 (THP-1): 7.05 µM; IC50 (K562): 9.98 µM; IC50 (MV4;11): 1.23 µM; IC50 (HL-60): 2.07 µM
CN(C)C1CCN(C(=O)c2ccc(NC(=O)Nc3ccc(-c4nc(N5CCOCC5)nc(N5CCOCC5)n4)cc3)cc2)CC1 [PKI-587]																					anti-proliferative activity in HL-60 cells (HL-60; 48 h): significant anti-proliferative activity
CCCS(=O)(=O)Nc1ccc(F)c(C(=O)c2c[nH]c3ncc(Cl)cc23)c1F [PLX4720]										> 10	> 10	0.84	0.45	9.68	8.5	> 10	> 10	> 10	5.6	> 10	IC50 (EOL-1; [2]): 4.2 µM
CC(C)[C@H](CO)Nc1nc(Nc2ccc(C(=O)O)c(Cl)c2)c2ncn(C(C)C)c2n1 [Purvalanol B]										> 10	> 10	> 10	> 10	> 10	> 10	> 10	> 10	> 10	9.13	> 10	IC50 (EOL-1; [2]): > 10 µM
Cn1c(=O)c(Oc2ccc(F)cc2F)cc2cnc(NC3CCOCC3)nc21 [R1487]	1.41	> 10	> 10	> 10	> 10	> 10	> 10	> 10	> 10												IC50 (K562; [1]): > 10 µM; IC50 (MV4;11; [1]): > 10 µM; IC50 (HL-60; [1]): > 10 µM
CC1=C(C(=O)Nc2cc3cn[nH]c3cc2F)C(c2ccc(C(F)(F)F)cc2)CC(=O)N1 (stereo not shown) [RHO-15]	0.19	> 10	> 10	5.14	2.11	> 10	9.64	> 10	> 10												IC50 (K562; [1]): 7.75 µM; IC50 (MV4;11; [1]): 7.22 µM; IC50 (HL-60; [1]): > 10 µM
OCCC#Cc1nc(-c2ccc(F)cc2)c(-c2ccncc2)n1CCCc1ccccc1 [RWJ-67657]										> 10	> 10	> 10	5.77	> 10	8.05	> 10	> 10	> 10	8.28	> 10	IC50 (EOL-1; [2]): 3.59 µM
Oc1ccc(-c2nc(-c3ccncc3)c(-c3ccc(F)cc3)[nH]2)cc1 [SB202190]										> 10	> 10	6.83	9.36	> 10	6.6	> 10	> 10	> 10	7	> 10	IC50 (EOL-1; [2]): 3.68 µM
COc1nccc(-c2c(-c3ccc(F)cc3)ncn2C2CCNCC2)n1 [SB242235]										> 10	> 10	2.18	> 10	> 10	> 10	> 10	> 10	> 10	6.16	> 10	IC50 (EOL-1; [2]): 0.51 µM
CN(C)CCOc1ccc(-c2nc(-c3ccncc3)c(-c3ccc4c(c3)CC/C4=N\O)[nH]2)cc1 [SB590885]										5.26	2.71	5.04	5.01	3.76	3.42	5.93	3.31	4.06	2.59	1.41	IC50 (EOL-1; [2]): 1.3 µM
NC(=O)c1ccc2[nH]ccc2c1 [SD169]	5.12	> 10	> 10	> 10	> 10	> 10	> 10	> 10	> 10												IC50 (K562; [1]): > 10 µM; IC50 (MV4;11; [1]): > 10 µM; IC50 (HL-60; [1]): > 10 µM
O=C1NC(=O)/C(=C/c2cccc(C(F)(F)F)c2)S1 [SMI-4a]	0.13	> 10	> 10	5.78	4.54	> 10	> 10	> 10	> 10												IC50 (K562; [1]): 2.74 µM; IC50 (MV4;11; [1]): 9.71 µM; IC50 (HL-60; [1]): > 10 µM
CNC(=O)c1cc(Oc2ccc(NC(=O)Nc3ccc(Cl)c(C(F)(F)F)c3)cc2)ccn1 [Sorafenib]										> 10	5.46	6.28	3.79	> 10	5.33	> 10	> 10	9.94	0.01	5.73	
COC(=O)c1ccc2c(c1)NC(=O)/C2=C(\Nc1ccc(N(C)C(=O)CN2CCN(C)CC2)cc1)c1ccccc1 [Vargatef]										2.97	3.44	0.46	0.24	2.7	6.31	3.69	5.85	0.59	0.04	3.55	
